Tests used:
HT-29 cells = test: Crystal violet assay, antiproliferative effects in HT-29 cells; assay type: cell-based; settings: HT-29 (COX-1/2-positive), 72 h
Description: (§1) In order to investigate the cytotoxic effects in MCF-7 and HT-29 cells, an already published crystal violet assay was used. The cells (HT-29: 3 × 10^3 cells per well in 100 µL of medium; MCF-7: 2 × 10^3 cells per well in 100 µL of medium) were seeded in their exponential growth phase in completed DMEM into 96-well microtiter plates in quadruples. […] Cells were then fixed with a solution of 1% (v/v) glutaric dialdehyde in PBS. In order to determine the cell biomass, the chromatin of the attached cells was stained with crystal violet, and the bound dye was extracted with EtOH (70%). The absorbance was measured at 590 nm. Mean values ± SD of ≥2 independent experiments were calculated, and the activity of the complexes was expressed as the cell mass of the vehicle-treated control, which was set to 100%.
(§2) The compounds were investigated regarding their cytotoxicity (in vitro) employing an already published crystal violet assay. It is based on the quantification of the cell biomass of living cells by staining the chromatin. In order to evaluate the possible influence of COX inhibition on cell growth, Zeise’s salt derivatives were investigated comparatively in HT-29 and MCF-7 cell lines.

[1] = Complex stability by capillary electrophoresis (decrease of initial complex over time); assay type: physicochemical; settings: MeOH/water (50/50, v/v), 1 mM, 37 °C, CE
Description: The analysis was performed as previously described. A 50 mM sodium tetraborate solution (pH = 9.3, adjusted with 1 M NaOH), served as background electrolyte (BGE). Washing of novel capillaries consecutively with 1 M NaOH (45 min), water (45 min), and BGE (45 min) was performed. The hydrodynamic injection mode was utilized to introduce the samples into the capillary (50 mbar for 2 s). The capillary was kept at 25 °C, and the autosampler was thermostatted at 37 °C with an external water bath. For separation, the voltage was set to 20 kV, and the detection was carried out at the wavelength of 230 nm. Before each measurement, flushing of the capillary with 0.1 M NaOH (3 min), water (3 min), and BGE (5 min) took place. The samples were dissolved in methanol (MeOH) and further diluted in equal parts by volume with water to give a final concentration of 1 mM. Triple determinations were performed, and the half-lives (τ½) are presented as mean ± SD of ≥3 independent experiments. Samples, washing solutions, and buffers were filtered through a membrane with 0.22 µm porosity and degassed by ultrasonication before use. To simplify the reaction dynamics from a possible second-order to pseudo-first-order, one of two reactants must be present in great excess (>10 to 25-fold). If this condition is fulfilled, logarithmic plotting of the gradual decrease in the other reactant’s concentration (or increase in the concentration of a product, respectively) against the time yields a straight line, and half-lives can be calculated.
An already-established method was used to study the stability of the X-ASA-Prop-PtCl3 and X-ASA-But-PtCl3 complexes. The degradation products were separated by capillary electrophoresis using a fused-silica capillary ([…] × 75 µm, effective length: 56 cm, capillary temperature: 25 °C) and a 50 mM tetraborate buffer (pH = 9.3) as BGE. For separation, the voltage was set to 20 kV and the compounds were detected at 230 nm. Benzoic acid was used as an internal standard. Exemplary electropherograms of each complex can be found in the Supplementary Material (Figures S1–S24).
The complexes (1 mM) were dissolved in MeOH or MeOH/water (50/50, v/v) and stored at 37 °C. The decrease in the initial amount of complex was monitored time-dependently by CE, and the half-life (τ½) was calculated (Table 2).

COX-2 = target: T1, COX-2 (Homo sapiens, UniProt P35354); test: COX Inhibitor Screening Assay (EIA) on isolated COX-2 isoenzyme; assay type: biochemical; settings: for Inhibition of COX-2: 1 µM, incubation 10 min
T1 construct: purchased Cayman Chemicals
T1 sequence (P35354 18-604): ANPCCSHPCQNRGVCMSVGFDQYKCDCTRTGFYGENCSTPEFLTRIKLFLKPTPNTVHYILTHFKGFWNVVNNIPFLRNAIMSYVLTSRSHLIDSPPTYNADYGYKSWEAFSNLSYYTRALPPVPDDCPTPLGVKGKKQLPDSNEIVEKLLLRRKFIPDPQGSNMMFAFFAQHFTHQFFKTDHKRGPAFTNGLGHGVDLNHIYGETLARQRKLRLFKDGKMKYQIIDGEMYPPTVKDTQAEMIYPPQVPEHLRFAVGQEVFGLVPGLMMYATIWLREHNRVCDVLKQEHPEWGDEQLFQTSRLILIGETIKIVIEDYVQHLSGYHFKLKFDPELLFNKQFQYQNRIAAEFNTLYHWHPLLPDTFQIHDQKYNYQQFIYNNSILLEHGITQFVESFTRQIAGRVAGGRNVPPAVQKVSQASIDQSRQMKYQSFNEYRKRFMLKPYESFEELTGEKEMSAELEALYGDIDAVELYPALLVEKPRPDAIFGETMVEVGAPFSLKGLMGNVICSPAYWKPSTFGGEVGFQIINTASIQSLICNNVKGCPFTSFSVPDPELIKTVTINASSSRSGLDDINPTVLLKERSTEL
Description: The incubation of the respective complexes with the isoenzymes was exactly 10 min. The values of COX inhibition were calculated as the mean of duplicates and shown as the mean ± SD of ≥2 independent experiments.

MCF-7 cells = test: Crystal violet assay, antiproliferative effects in MCF-7 cells; assay type: cell-based; settings: MCF-7 (COX-negative), 72 h
Description: as §1, §2

CC(=O)Oc1c(F)cccc1C(=O)OC[CH]1[CH2][Pt-]1([Cl])([Cl])[Cl].[K+] (centres unmarked) [3-F-ASA-Prop-PtCl3, Potassium trichlorido[η^2-(prop-2-en-1-yl)-2-acetoxy-3-fluorobenzoate]platinate(II)]
IC50 (HT-29 cells): 86.9 ± 3.9 µM
Half-life (τ½) [1]: 0.508 ± 0.0233 h
Inhibition of COX-2 (COX-2): 20.7%
IC50 (MCF-7 cells): 85.2 ± 21.8 µM

CC(=O)Oc1cccc(F)c1C(=O)OC[CH]1[CH2][Pt-]1([Cl])([Cl])[Cl].[K+] (centres unmarked) [6-F-ASA-Prop-PtCl3, Potassium trichlorido[η^2-(prop-2-en-1-yl)-2-acetoxy-6-fluorobenzoate]platinate(II)]
IC50 (HT-29 cells): 114 ± 7.1 µM
Half-life (τ½) [1]: 0.485 ± 0.005 h
IC50 (MCF-7 cells): ≥ 200 µM

CC(=O)Oc1c(C)cccc1C(=O)OCC[CH]1[CH2][Pt-]1([Cl])([Cl])[Cl].[K+] (centres unmarked) [3-CH3-ASA-But-PtCl3, Potassium trichlorido[η^2-(but-3-en-1-yl)-2-acetoxy-3-methylbenzoate]platinate(II)]
IC50 (HT-29 cells): 18 ± 2.4 µM
Half-life (τ½) [1]: 45.9 ± 6.0 h
IC50 (MCF-7 cells): 45.6 ± 7.2 µM

CC(=O)Oc1ccc(F)cc1C(=O)OCC[CH]1[CH2][Pt-]1([Cl])([Cl])[Cl].[K+] (centres unmarked) [5-F-ASA-But-PtCl3, Potassium trichlorido[η^2-(but-3-en-1-yl)-2-acetoxy-5-fluorobenzoate]platinate(II)]
IC50 (HT-29 cells): 75.8 ± 13.2 µM
Half-life (τ½) [1]: 48.1 ± 4.3 h
IC50 (MCF-7 cells): 93.8 ± 10.8 µM

CC(=O)Oc1c(F)cccc1C(=O)OCC[CH]1[CH2][Pt-]1([Cl])([Cl])[Cl].[K+] (centres unmarked) [3-F-ASA-But-PtCl3, Potassium trichlorido[η^2-(but-3-en-1-yl)-2-acetoxy-3-fluorobenzoate]platinate(II)]
IC50 (HT-29 cells): 69.4 ± 1.5 µM
Half-life (τ½) [1]: 51.9 ± 2.5 h
IC50 (MCF-7 cells): 97.4 ± 17.6 µM

CC(=O)Oc1ccc(F)cc1C(=O)OC[CH]1[CH2][Pt-]1([Cl])([Cl])[Cl].[K+] (centres unmarked) [5-F-ASA-Prop-PtCl3, Potassium trichlorido[η^2-(prop-2-en-1-yl)-2-acetoxy-5-fluorobenzoate]platinate(II)]
IC50 (HT-29 cells): 110 ± 21.7 µM
Half-life (τ½) [1]: 0.46 ± 0.02 h
IC50 (MCF-7 cells): 106 ± 4.1 µM

CC(=O)Oc1cc(F)ccc1C(=O)OC[CH]1[CH2][Pt-]1([Cl])([Cl])[Cl].[K+] (centres unmarked) [4-F-ASA-Prop-PtCl3, Potassium trichlorido[η^2-(prop-2-en-1-yl)-2-acetoxy-4-fluorobenzoate]platinate(II)]
IC50 (HT-29 cells): 107 ± 3.1 µM
Half-life (τ½) [1]: 0.535 ± 0.0183 h
Inhibition of COX-2 (COX-2): 17.5%
IC50 (MCF-7 cells): 150 ± 33.6 µM

CC(=O)Oc1c(Cl)cccc1C(=O)OCC[CH]1[CH2][Pt-]1([Cl])([Cl])[Cl].[K+] (centres unmarked) [3-Cl-ASA-But-PtCl3, Potassium trichlorido[η^2-(but-3-en-1-yl)-2-acetoxy-3-chlorobenzoate]platinate(II)]
IC50 (HT-29 cells): 43 ± 10.9 µM
Half-life (τ½) [1]: 47.0 ± 14.0 h
IC50 (MCF-7 cells): 33.5 ± 1.9 µM

CC(=O)Oc1cccc(Cl)c1C(=O)OCC[CH]1[CH2][Pt-]1([Cl])([Cl])[Cl].[K+] (centres unmarked) [6-Cl-ASA-But-PtCl3, Potassium trichlorido[η^2-(but-3-en-1-yl)-2-acetoxy-6-chlorobenzoate]platinate(II)]
IC50 (HT-29 cells): 57.5 ± 19.2 µM
Half-life (τ½) [1]: 51.8 ± 7.7 h
IC50 (MCF-7 cells): 42.3 ± 8.3 µM

N.N.[Cl][Pt][Cl] [Cisplatin, reference compound]
IC50 (HT-29 cells): 2.6 ± 0.1 µM
IC50 (MCF-7 cells): 3.7 ± 0.3 µM

CC(=O)Oc1cc(Cl)ccc1C(=O)OC[CH]1[CH2][Pt-]1([Cl])([Cl])[Cl].[K+] (centres unmarked) [4-Cl-ASA-Prop-PtCl3, Potassium trichlorido[η^2-(prop-2-en-1-yl)-2-acetoxy-4-chlorobenzoate]platinate(II)]
IC50 (HT-29 cells): 89.8 ± 23.9 µM
Half-life (τ½) [1]: 0.545 ± 0.03 h
COX-2 selectivity (COX-2; from inhibition at 1 µM, COX-2 over COX-1): 1.5 fold
IC50 (MCF-7 cells): 70.7 ± 3.6 µM

CC(=O)Oc1cc(F)ccc1C(=O)OCC[CH]1[CH2][Pt-]1([Cl])([Cl])[Cl].[K+] (centres unmarked) [4-F-ASA-But-PtCl3, Potassium trichlorido[η^2-(but-3-en-1-yl)-2-acetoxy-4-fluorobenzoate]platinate(II)]
IC50 (HT-29 cells): 89.2 ± 3.5 µM
Half-life (τ½) [1]: 49.9 ± 4.5 h
IC50 (MCF-7 cells): 105.9 ± 0.4 µM

CC(=O)Oc1cc(C)ccc1C(=O)OCC[CH]1[CH2][Pt-]1([Cl])([Cl])[Cl].[K+] (centres unmarked) [4-CH3-ASA-But-PtCl3, Potassium trichlorido[η^2-(but-3-en-1-yl)-2-acetoxy-4-methylbenzoate]platinate(II)]
IC50 (HT-29 cells): 27.1 ± 1.5 µM
Half-life (τ½) [1]: 65.7 ± 7.2 h
IC50 (MCF-7 cells): 38.8 ± 6.5 µM

CC(=O)Oc1cccc(C)c1C(=O)OC[CH]1[CH2][Pt-]1([Cl])([Cl])[Cl].[K+] (centres unmarked) [6-CH3-ASA-Prop-PtCl3, Potassium trichlorido[η^2-(prop-2-en-1-yl)-2-acetoxy-6-methylbenzoate]platinate(II)]
IC50 (HT-29 cells): 27.4 ± 1.4 µM
Half-life (τ½) [1]: 0.747 ± 0.0183 h
IC50 (MCF-7 cells): 76.2 ± 1.4 µM

CC(=O)Oc1cccc(Cl)c1C(=O)OC[CH]1[CH2][Pt-]1([Cl])([Cl])[Cl].[K+] (centres unmarked) [6-Cl-ASA-Prop-PtCl3, Potassium trichlorido[η^2-(prop-2-en-1-yl)-2-acetoxy-6-chlorobenzoate]platinate(II)]
IC50 (HT-29 cells): 38.4 ± 3.4 µM
Half-life (τ½) [1]: 0.658 ± 0.0317 h
IC50 (MCF-7 cells): 85.9 ± 9.2 µM

CC(=O)Oc1cccc(F)c1C(=O)OCC[CH]1[CH2][Pt-]1([Cl])([Cl])[Cl].[K+] (centres unmarked) [6-F-ASA-But-PtCl3, Potassium trichlorido[η^2-(but-3-en-1-yl)-2-acetoxy-6-fluorobenzoate]platinate(II)]
IC50 (HT-29 cells): 99.7 ± 0.4 µM
Half-life (τ½) [1]: 34.6 ± 1.5 h
IC50 (MCF-7 cells): 92.6 ± 23.8 µM

CC(=O)Oc1ccc(Cl)cc1C(=O)OCC[CH]1[CH2][Pt-]1([Cl])([Cl])[Cl].[K+] (centres unmarked) [5-Cl-ASA-But-PtCl3, Potassium trichlorido[η^2-(but-3-en-1-yl)-2-acetoxy-5-chlorobenzoate]platinate(II)]
IC50 (HT-29 cells): 49.1 ± 6.2 µM
Half-life (τ½) [1]: 62.4 ± 1.6 h
IC50 (MCF-7 cells): 28.2 ± 4.5 µM

CC(=O)Oc1c(C)cccc1C(=O)OC[CH]1[CH2][Pt-]1([Cl])([Cl])[Cl].[K+] (centres unmarked) [3-CH3-ASA-Prop-PtCl3, Potassium trichlorido[η^2-(prop-2-en-1-yl)-2-acetoxy-3-methylbenzoate]platinate(II)]
IC50 (HT-29 cells): 27.8 ± 3.4 µM
Half-life (τ½) [1]: 0.585 ± 0.0383 h
IC50 (MCF-7 cells): 71.4 ± 3.1 µM

CC(=O)Oc1cccc(C)c1C(=O)OCC[CH]1[CH2][Pt-]1([Cl])([Cl])[Cl].[K+] (centres unmarked) [6-CH3-ASA-But-PtCl3, Potassium trichlorido[η^2-(but-3-en-1-yl)-2-acetoxy-6-methylbenzoate]platinate(II)]
IC50 (HT-29 cells): 20.2 ± 0.2 µM
Half-life (τ½) [1]: 35.0 ± 3.7 h
IC50 (MCF-7 cells): 35.3 ± 0.9 µM

From article PMC10304174, “Development of Zeise’s Salt Derivatives Bearing Substituted Acetylsalicylic Acid Substructures as Cytotoxic COX Inhibitors” (Pharmaceutics, 2023)
